Measurements taken from patent US7084172B2, “Bioprecursors for percutaneous application” (Pierre Fabre Dermo-Cosmetique, priority 2001, dated 2006).

Test system: HaCaT keratinocyte line
Assay: Enzymatic hydrolysis by esterase activity in HaCaT keratinocytes
Format: in vitro ADME, human
Method: 150 μl of a 1 mM solution in dimethyl sulphoxide (DMSO) are placed in a dish containing an HaCaT keratinocyte line (75 cm^2) in 15 ml of serum alone. The cells are placed in the incubator at 37° C. for 24 hours. The medium is extracted with 15 ml of ethyl acetate. The organic phase is then isolated and evaporated off.
The cells are extracted by sonication into 2×15 ml of an ice-cold mixture consisting of chloroform and methanol (1:2.5). After centrifugation, the organic phase collected is evaporated to dryness. For each test, a control is performed on a dish containing cells and a substrate-free medium to take account of a possible chemical degradation of the substrate.
The presence of esterase activity in the human keratinocytes is checked by means of a substrate, 4-methylumbelliferyl palmitate. The precursor according to the invention, used as pseudosubstrate, is the tocopheryl retinyl succinate prepared according to example 1.

CC1=C(/C=C/C(C)=C/C=C/C(C)=C/COC(=O)CCC(=O)Oc2c(C)c(C)c3c(c2C)CCC(C)(CCCC(C)CCCC(C)CC(C)C)O3)C(C)(C)CCC1 (centres unmarked) [Tocopheryl retinyl succinate, O-(4-Oxo-4-{[2,5,7,8-tetramethyl-2-(4,8,12-trimethyltridecyl)-3,4-dihydro-2H-chromen-6-yl]oxy}butanoyl)retinol]
Degree of hydrolysis in 24 hours of incubation (human, 24 h, 10 µM): 5% ± 3%

CCCCCCCCCCCCCCCC(=O)Oc1ccc2c(C)cc(=O)oc2c1 [4-Methylumbelliferyl palmitate, 4-methylumbelliferyl palmitate]
Degree of hydrolysis in 24 hours of incubation (150 μl of 1 mM DMSO solution in 15 ml serum, HaCaT keratinocytes, 37° C., 24 hours): 2.7% ± 2%
